From patent US8093374B2, “Bismuth hyaluronate, the preparation method and the use thereof” (priority 2005, dated 2012)
Marks after values point to notes of the source that are not given here.

Key:
[1] = system: hydrochloric acid-ethanol-induced injury to gastric mucosa; assay: Prevention and treatment of hydrochloric acid-ethanol-induced injury to gastric mucosa in rats; assay type: in vivo, Female Wistar rats; conditions: for Length of injury (x ± s): sacrificed 1 h after, negative control 97.50 ± 13.28
Experimental: Female Wistar rats weighing 150 to 200 g were used. Following the method described in the literature (Methodology of pharmacological studies of Chinese medicines, Beijing, People's Health Press, 1994: 441). The rats were fasted, with access to water, for 24 h. Then the rats were randomly divided (see above) and received intragastric administration. 30 min after the administration, each rat was drenched with hydrochloric acid-ethanol (a mixture of 50 ml of absolute ethanol and 1 ml of concentrated hydrochloric acid) at a dose of 0.5 ml/100 g of body weight. 1 h after the treatment with acidified ethanol, the animals were sacrificed, and their stomachs were removed and fixed in a formaldehyde solution. The stomach was cut open along the greater curvature and washed for examination of the injury to the gastric mucous membrane.

[2] = system: acetic acid-induced gastric ulcer; assay: Protecting effect on acetic acid-induced gastric ulcer in rats; assay type: in vivo, Female Wistar rats; conditions: for Area of Ulcer (x ± s): intragastric once daily for 10 consecutive days, negative control 15.71 ± 2.20; for Inhibition of Ulcer: intragastric once daily for 10 days, percentage of the control
Text: Female Wistar rats weighing 150 to 200 g were used. Following the method described in literatures ((1) Pharmacological Test Methodology, 2nd edition, Beijing, People's Health Press, 1991, 1158-1160; (2) Guidelines for preclinical studies of new drugs (western medicines) (pharmacy, pharmacology, toxicology), 1993, 88-89), a model of acetic acid-induced gastric ulcer was made. Specifically, in an area of 5 mm in diameter on the serosal side of the body of stomach in rats under anesthesia with ether, gastric ulcer was induced by treatment with 0.2 ml of glacial acetic acid for 1.5 min. On the next day following the operation, animals were randomly divided into 6 groups and started on oral administration, with distilled water as negative control and colloidal bismuth pectin as positive control. The test samples are the bismuth hyaluronate of the present invention prepared according to the Preparation Example 1 (having a glucuronate content of 27.9% and a bismuth content of 30.7%) and the starting material sodium hyaluronate (having an average molecular weight of 9.1×10^5 and a glucuronate content of 38.9%). The rats received intragastric administration once daily in a volume of about 10 ml for 10 consecutive days. Then the animals were sacrificed, and their stomachs were removed and fixed in a formaldehyde solution. After dissection, the size of the gastric ulcer was determined by measuring under microscope the maximum longitudinal diameter (d1) and the maximum transverse diameter (d2) through the center of the ulcer, and calculating the area of ulcer using the following equation: S=π×(d1/2)×(d2/2). The inhibition of ulcer was expressed as the percentage of the control.

[3] = 150 mg/kg intragastric 30 min before hydrochloric acid-ethanol
[4] = 50 mg/kg intragastric 30 min before hydrochloric acid-ethanol
[5] = 100 mg/kg intragastric 30 min before hydrochloric acid-ethanol

| Substance | Inhibition of Ulcer [1, 3] [%] | Length of injury (x ± s) [1, 3] | Area of Ulcer (x ± s) ([2]; 150 mg/kg) | Inhibition of Ulcer ([2]; 150 mg/kg) [%] | Inhibition of Ulcer [1, 4] [%] | Length of injury (x ± s) [1, 4] | Inhibition of Ulcer [1, 5] [%] | Length of injury (x ± s) [1, 5] | inhibition of acidified ethanol-induced gastric ulcer (in words) ([1]; rats, summary of Table 3) | inhibition of acidified ethanol-induced gastric ulcer compared with colloidal bismuth pectin (in words) ([1]; rats, versus positive control) | Area of Ulcer (x ± s) ([2]; 50 mg/kg) | Inhibition of Ulcer ([2]; 50 mg/kg) [%] | Area of Ulcer (x ± s) ([2]; 100 mg/kg) | Inhibition of Ulcer ([2]; 100 mg/kg) [%] | inhibition of acetic acid-induced gastric ulcer (in words) ([2]; rats, summary of Table 2) | inhibition of acetic acid-induced gastric ulcer compared with colloidal bismuth pectin (in words) ([2]; rats, versus positive control) |
| --- | --- | --- | --- | --- | --- | --- | --- | --- | --- | --- | --- | --- | --- | --- | --- | --- |
| colloidal bismuth pectin [reference compound] | 55.24 | 43.64 ± 9.55 mm | 7.15 ± 2.03* mm^2 | 54.48 |  |  |  |  |  |  |  |  |  |  |  |  |
| sodium hyaluronate [reference compound] | 48.16 | 50.54 ± 11.98 mm | 10.25 ± 2.29 mm^2 | 34.75 |  |  |  |  |  |  |  |  |  |  |  |  |
| bismuth hyaluronate | 92.70 | 7.11 ± 2.13***^ΔΔΔ mm | 4.05 ± 1.62***^ΔΔ mm^2 | 74.22 | 72.78 | 26.54 ± 7.88***^ΔΔ mm | 92.93 | 6.89 ± 1.86***^ΔΔΔ mm | statistically significant inhibition | significantly higher than the positive control | 5.92 ± 2.27** mm^2 | 62.32 | 4.98 ± 1.15***^Δ mm^2 | 68.30 | statistically significant inhibition | significantly higher than the positive control |
